Marks after values point to notes of the source that are not given here.
Tested on: Japanese patients with NSCLC
Test: Multivariate logistic regression of ILD with gefitinib exposure and other risk factors
Type: in vivo
Settings: for OR estimate (95% CI) for acute ILD: Age (≥55 vs <55 years): gefitinib-treated patients
Method: Patients with and without ILD, in whom pharmacokinetic measurements were available, were included in this analysis. […] A multivariate logistic regression model was used in this analysis; the analysis was performed using SAS version 9.3. […] In addition, the interaction of smoking history and normal lung coverage, and the interaction of the severity of pre-existing ILD and normal lung coverage were also studied. In addition, pharmacokinetic exposure parameters were divided into four quartiles (see “Results”) and investigated as risk factors. For association with ILD risk, the mid-1, mid-2, and high-exposure groups were compared with the low-exposure group.

[1] = Analysis 1 (PK parameter AUC0–24, single dose)
[2] = Analysis 1, gefitinib exposure after a single dose
[3] = Analysis 2 (PK parameter AUC0–24,ss)
[4] = Analysis 2, gefitinib exposure at steady state
[5] = Analysis 3 (PK parameter Cmax, single dose)
[6] = Analysis 3, gefitinib exposure after a single dose
[7] = Analysis 4 (PK parameter Cmax,ss)
[8] = Analysis 4, gefitinib exposure at steady state

OR estimate (95% CI) for acute ILD: Interaction of pre-existing IP and normal lung coverage [1]: 0.37 (0.02–6.82)
OR estimate (95% CI) for acute ILD: Interaction of smoking history and normal lung coverage [1]: 0.6 (0.09–4.12)
OR estimate (95% CI) for acute ILD: Normal lung coverage (10%–50% vs 60%–100%) [1]: 3.39 (0.63–18.31)
OR estimate (95% CI) for acute ILD: Pre-existing IP (yes vs no) [1]: 4.01 (0.37–43.22)
OR estimate (95% CI) for acute ILD: WHO performance status 1 vs 0 [1]: 0.59 (0.2–1.68)
OR estimate (95% CI) for acute ILD: WHO performance status 2–3 vs 0 [1]: 1.75 (0.48–6.33)
OR estimate (95% CI) for acute ILD: Age (≥55 vs <55 years) [1]: 1.86 (0.5–6.88)
OR estimate (95% CI) for acute ILD: AUC0–24 Quartile 2 vs Quartile 1 [2]: 0.68 (0.2–2.32)
OR estimate (95% CI) for acute ILD: AUC0–24 Quartile 3 vs Quartile 1 [2]: 0.62 (0.18–2.12)
OR estimate (95% CI) for acute ILD: AUC0–24 Quartile 4 vs Quartile 1 [2]: 3.35 (1.14–9.88)
OR estimate (95% CI) for acute ILD: Duration of NSCLC ≥1 vs <0.5 years [3]: 0.57 (0.19–1.69)
OR estimate (95% CI) for acute ILD: Interaction of pre-existing IP and normal lung coverage [3]: 0.25 (0.01–6.8)
OR estimate (95% CI) for acute ILD: Interaction of smoking history and normal lung coverage [3]: 0.14 (0.01–1.52)
OR estimate (95% CI) for acute ILD: Pre-existing IP (yes vs no) [3]: 4.49 (0.33–60.44)
OR estimate (95% CI) for acute ILD: WHO performance status 1 vs 0 [3]: 0.55 (0.19–1.62)
OR estimate (95% CI) for acute ILD: WHO performance status 2–3 vs 0 [3]: 1.37 (0.35–5.39)
OR estimate (95% CI) for acute ILD: Age (≥55 vs <55 years) [3]: 1.54 (0.36–6.6)
OR estimate (95% CI) for acute ILD: Normal lung coverage (10%–50% vs 60%–100%) (Analysis 2 (PK parameter AUC0–24,ss), p<0.05): 9.47 (1.14–78.84)*
OR estimate (95% CI) for acute ILD: AUC0–24,ss Quartile 2 vs Quartile 1 [4]: 1.2 (0.27–5.32)
OR estimate (95% CI) for acute ILD: AUC0–24,ss Quartile 3 vs Quartile 1 [4]: 1.71 (0.42–6.94)
OR estimate (95% CI) for acute ILD: AUC0–24,ss Quartile 4 vs Quartile 1 [4]: 2.09 (0.5–8.74)
OR estimate (95% CI) for acute ILD: Duration of NSCLC ≥1 vs <0.5 years [5]: 0.32 (0.12–0.83)
OR estimate (95% CI) for acute ILD: Interaction of pre-existing IP and normal lung coverage [5]: 0.51 (0.03–9.56)
OR estimate (95% CI) for acute ILD: Interaction of smoking history and normal lung coverage [5]: 0.56 (0.08–3.96)
OR estimate (95% CI) for acute ILD: Normal lung coverage (10%–50% vs 60%–100%) [5]: 3.56 (0.64–19.85)
OR estimate (95% CI) for acute ILD: Pre-existing IP (yes vs no) [5]: 3.56 (0.33–38.74)
OR estimate (95% CI) for acute ILD: WHO performance status 1 vs 0 [5]: 0.62 (0.21–1.8)
OR estimate (95% CI) for acute ILD: WHO performance status 2–3 vs 0 [5]: 1.89 (0.52–6.85)
OR estimate (95% CI) for acute ILD: Age (≥55 vs <55 years) [5]: 2.13 (0.56–8.04)
OR estimate (95% CI) for acute ILD: Cmax Quartile 2 vs Quartile 1 [6]: 0.51 (0.14–1.8)
OR estimate (95% CI) for acute ILD: Cmax Quartile 3 vs Quartile 1 [6]: 0.5 (0.14–1.72)
OR estimate (95% CI) for acute ILD: Cmax Quartile 4 vs Quartile 1 [6]: 3.03 (1–9.17)
OR estimate (95% CI) for acute ILD: Duration of NSCLC ≥1 vs <0.5 years [7]: 0.59 (0.2–1.75)
OR estimate (95% CI) for acute ILD: Interaction of pre-existing IP and normal lung coverage [7]: 0.18 (0.01–4.98)
OR estimate (95% CI) for acute ILD: Interaction of smoking history and normal lung coverage [7]: 0.17 (0.02–1.89)
OR estimate (95% CI) for acute ILD: Pre-existing IP (yes vs no) [7]: 5.21 (0.39–70.35)
OR estimate (95% CI) for acute ILD: WHO performance status 1 vs 0 [7]: 0.57 (0.19–1.68)
OR estimate (95% CI) for acute ILD: WHO performance status 2–3 vs 0 [7]: 1.34 (0.33–5.39)
OR estimate (95% CI) for acute ILD: Age (≥55 vs <55 years) [7]: 1.69 (0.4–7.17)
OR estimate (95% CI) for acute ILD: Normal lung coverage (10%–50% vs 60%–100%) (Analysis 4 (PK parameter Cmax,ss), p<0.05): 9.4 (1.11–79.48)*
OR estimate (95% CI) for acute ILD: Cmax,ss Quartile 2 vs Quartile 1 [8]: 0.69 (0.16–3.02)
OR estimate (95% CI) for acute ILD: Cmax,ss Quartile 3 vs Quartile 1 [8]: 1.72 (0.47–6.27)
OR estimate (95% CI) for acute ILD: Cmax,ss Quartile 4 vs Quartile 1 [8]: 1.07 (0.27–4.29)
SMILES: COc1cc2ncnc(Nc3ccc(F)c(Cl)c3)c2cc1OCCCN1CCOCC1 [gefitinib]

— article PMC6458983 (Cancer Chemotherapy and Pharmacology, 2019)
